“Also recorded” adds a separate entry of the source.
Tests used:
[1] = test system: TP53 wild-type Ewing sarcoma cell lines; test: CellTiter-Glo cell viability assay, TP53 wild-type Ewing sarcoma cell lines; format: cell-based; conditions: treated for 3 d
Method: (§1) Cell viability was assessed using the CellTiter-Glo® Luminescent Cell Viability Assay (Promega). Viability assays were performed after Ewing sarcoma cell lines were infected with sgRNAs targeting TP53, MDM2, MDM4, PPM1D, or USP7 or treated with ATSP-7041, ATSP-7342, GSK2830371, P5091, XL-188, or vehicle control.

Wip1 = molecular target: T1, Wip1 (Homo sapiens, UniProt O15297); test: Western immunoblotting of Wip1 and pSer15-p53; format: cell-based; conditions: Western blot
T1 construct: Whole-cell lysates were extracted in cell lysis buffer (Cell Signaling); endogenous in cells; host or cells: TP53 wild-type Ewing sarcoma cell lines
T1 sequence (O15297 1-605): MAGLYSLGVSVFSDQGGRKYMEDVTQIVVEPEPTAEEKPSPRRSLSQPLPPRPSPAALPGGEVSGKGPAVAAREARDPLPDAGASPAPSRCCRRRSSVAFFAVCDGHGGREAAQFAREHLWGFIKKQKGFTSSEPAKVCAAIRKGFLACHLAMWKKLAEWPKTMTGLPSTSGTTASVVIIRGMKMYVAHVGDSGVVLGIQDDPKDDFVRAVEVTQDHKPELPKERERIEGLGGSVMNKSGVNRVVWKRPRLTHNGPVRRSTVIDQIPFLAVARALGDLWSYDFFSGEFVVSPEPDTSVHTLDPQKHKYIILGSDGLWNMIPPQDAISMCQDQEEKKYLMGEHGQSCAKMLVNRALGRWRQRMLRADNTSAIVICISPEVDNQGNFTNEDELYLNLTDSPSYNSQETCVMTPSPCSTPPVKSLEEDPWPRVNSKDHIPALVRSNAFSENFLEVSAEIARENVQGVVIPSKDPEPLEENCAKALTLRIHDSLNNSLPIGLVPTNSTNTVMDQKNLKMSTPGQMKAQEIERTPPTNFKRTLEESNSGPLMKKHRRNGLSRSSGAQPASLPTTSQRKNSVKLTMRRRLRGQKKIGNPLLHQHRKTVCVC
Method: (§2) Whole-cell lysates were extracted in cell lysis buffer (Cell Signaling) supplemented with EDTA-free protease inhibitors and PhosSTOP™ phosphatase inhibitors (Roche). Western immunoblotting was performed using standard techniques. Primary antibodies used included anti-MDM2 (ab178938; Abcam), anti-MDM2 (86934; Cell Signaling), anti-MDM4 (A300-287A; Bethyl Laboratories), anti-p53 (2527S; Cell Signaling), anti-p21 (2946S; Cell Signaling), anti-Vinculin (18058; Abcam), anti-Wip1 (A300-664A; Bethyl Laboratories), anti-pSer15-p53 (9284; Cell Signaling), anti-USP7 (A300-033A; Bethyl Laboratories), and anti-Tubulin (cp06; CalBiochem).

TP53 knockout cells = test: CellTiter-Glo cell viability assay, TP53 knockout cells; format: cell-based; conditions: TP53 knockout cells vs control cells, treated for 3 d
Method: Lentivirus was produced by transfecting HEK-293T cells with the pLentiV2 vector (Addgene plasmid 52961) and the packaging plasmids pCMV8.9 and pCMV-VSVG according to the FuGENER 6 (Roche) protocol. For lentiviral transduction, Ewing sarcoma cells were incubated with 2 ml of virus and 8 μg/ml of polybrene (Sigma-Aldrich). Cells were selected in puromycin (Sigma-Aldrich) 48 h after infection for single knockout experiments. For dual knockout experiments, PPM1D, USP7, and MDM4 sgRNA sequences were cloned into a LentiV2 vector with a blasticidin selection marker (Addgene plasmid 83480).
d. sgRNA Sequences sgRNAs were designed using the Broad Institute's sgRNA designer tool. The following sequences were used as control or to target the respective genes: control sgRNA, 5′-[…]-3′ (SEQ ID NO: 125); sgMDM2 2: 5′-[…]-3′ (SEQ ID NO: 126); sgMDM2 5: 5′-[…]-3′ (SEQ ID NO: 127); sgMDM4 4: 5′-[…]-3′ (SEQ ID NO: 128); sgMDM4 6: 5′-[…]-3′ (SEQ ID NO: 129); sgUSP7 1: 5′-[…]-3′ (SEQ ID NO: 130); sgUSP7 2: 5′-ACCATACCCAAATTATTC CG-3′ (SEQ ID NO: 131); sgPPMID 1: 5′-[…]-3′ (SEQ ID NO: 132); sgPPMID 2: 5′-[…]-3′ (SEQ ID NO: 133); sgTP53 1: 5′-[…]-3′ (SEQ ID NO: 134); sgTP53 2: 5′-[…]-3′ (SEQ ID NO: 135); sgTP53 4: 5′-[…]-3′ (SEQ ID NO: 136); and sgTP53 5: 5′-[…]-3′ (SEQ ID NO: 137). e. Protein Extraction and Immunoblotting
as §1

[2] = test system: TP53 wild-type Ewing sarcoma cell lines; test: Annexin V staining, flow cytometry (cell death); format: cell-based; conditions: TC32 and CHLA258; 2 d ATSP-7041 (2 μM, 4 μM) or P5091 (6.5 μM, 8 μM), 3 d GSK2830371 (15 μM)
Method: Cell death was measured using flow cytometric analysis of Annexin V staining according to the manufacturer's instructions (eBioscience). Data analysis was completed using Flowjo 7.6 software (Treestar).

[3] = test system: MDM2, p53, and p21 protein levels; test: Western immunoblotting of MDM2, p53, p21 in TP53 wild-type Ewing sarcoma cell lines; format: cell-based; conditions: for MDM2 protein levels, combination of ATSP-7041 and P5091 compared with ATSP-7041 alone: TC32 and TC138 cells, 2 d
Method: as §2

MDM2 protein levels = test: Western immunoblotting of MDM2 in TP53 mutated cell lines A673 and EWS502; format: cell-based; conditions: TP53 mutated cell lines A673 and EWS502, 1 μM; 4 h
Method: as §2

p53-MDM4 complex = molecular target: T2, p53-MDM4 complex (Homo sapiens, UniProt O15151); test: MDM4 immunoprecipitation from TC32 cell lysates, p53 and MDM4 Western blot; format: binding; conditions: TC32 lysates after RG7388 pre-treatment, 20 μM compound
T2 construct: endogenous in cells; host or cells: TC32 Ewing sarcoma cells (TP53 wild-type), lysed in NP-40 buffer
T2 sequence (O15151 1-490): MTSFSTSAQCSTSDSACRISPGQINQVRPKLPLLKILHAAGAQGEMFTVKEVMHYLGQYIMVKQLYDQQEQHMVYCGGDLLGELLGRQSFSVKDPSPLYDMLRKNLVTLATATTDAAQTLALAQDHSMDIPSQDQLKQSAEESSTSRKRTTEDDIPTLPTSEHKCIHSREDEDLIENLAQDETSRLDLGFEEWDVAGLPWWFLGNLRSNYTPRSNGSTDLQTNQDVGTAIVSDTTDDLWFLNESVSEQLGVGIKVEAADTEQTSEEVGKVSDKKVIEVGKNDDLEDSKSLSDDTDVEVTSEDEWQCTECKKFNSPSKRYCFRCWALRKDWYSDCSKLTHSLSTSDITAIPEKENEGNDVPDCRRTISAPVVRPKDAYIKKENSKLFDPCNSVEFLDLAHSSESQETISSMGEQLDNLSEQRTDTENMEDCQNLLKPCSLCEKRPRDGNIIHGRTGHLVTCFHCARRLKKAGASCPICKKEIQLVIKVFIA
Method: g. Immunoprecipitation Experiments
Five million TC32 cells were treated with either 10 μM RG7388 or vehicle control for 4 h. Cells were lysed in buffer A (150 mM NaCl, 50 mM Tris, and 0.5% NP-40, pH 7.4) and combined with anti-MDM4 antibody (A300-287A; Bethyl Laboratories) in the presence of 20 μM RG7388, ATSP-7041, or vehicle control in a total volume of 1 ml, rotating at 4° C. for 16 h. Subsequently, 50 μl washed Protein AG beads (sc-2003; Santa Cruz) were added and the mixture was incubated for 1 h rotating at 4° C. Beads were washed three times in buffer A, and protein complexes were eluted by boiling in NuPage® LDS Sample Buffer (NP0007; Invitrogen) supplemented with DTT. Samples were analyzed by Western blot with antibodies against p53 DO-1 (sc-126; Santa Cruz) and MDM4 (A300-287A; Bethyl Laboratories).

[4] = TP53 wild-type Ewing sarcoma cell lines, micromolar concentrations

Structure (SMILES)	cell viability, normalized to vehicle control [1, 4]	phosphorylation of Serine 15 of p53 (pSer15-p53) (Wip1; single agent)	Wip1 protein levels (Wip1; time-dependent)	effect of TP53 knockout on the cytotoxic effect of the compound (viability) (TP53 knockout cells)	cell death measured by Annexin V staining [2]	MDM2 protein levels, combination of ATSP-7041 and P5091 compared with ATSP-7041 alone [3]	MDM2 protein levels, combination of ATSP-7041 and P5091 compared with ATSP-7041 alone ([3]; listed as P0951)	p53 and p21 protein levels ([3]; TP53 wild-type cells TC32 and TC138, Western blot)	MDM2 protein levels (MDM2 protein levels)	MDM2 protein levels ([3]; TP53 wild-type cell lines TC32 and TC138, 1 μM, 4 h)	disruption of p53-MDM4 complex (MDM4 immunoprecipitation) (p53-MDM4 complex)	cell viability, normalized to vehicle control ([1]; TC32 cells)
Cc1ncc(Cl)cc1NCc1ccc(C(=O)N[C@@H](CC2CCCC2)C(=O)NC2CC2)s1 [GSK2830371, 5-[[(5-Chloro-2-methyl-3-pyridinyl)amino]methyl]-N-[(1S)-1-(cyclopentylmethyl)-2-(cycloprpylamino)-2-oxoethyl]-2-thiophenecarboxamide]	reduce viability; also recorded: notable increase in susceptibility	increased pSer15-p53; also recorded: triggered a surge in phosphorylation of Serine 15 of p53	decreased protein levels of Wip1; also recorded: reduced the protein levels of Wip1	less effective	triggers cell death; also recorded: GSK2830371-induced cell death	–	–	–	–	–	–	–
CC(=O)c1cc([N+](=O)[O-])c(Sc2cccc(Cl)c2Cl)s1 [P5091]	reduce viability; also recorded: relatively more cytotoxic	–	–	did not rescue	triggers cell death; also recorded: P5091-induced cell death	decreased MDM2 protein levels; also recorded: decreased the level of MDM2 protein	suppresses the feedback up-regulation of MDM2	increase in p53 and p21 protein levels; also recorded: increased p53 and p21 protein levels in a time-dependent fashion	–	–	–	–
COc1cc(C(=O)O)ccc1NC(=O)[C@@H]1N[C@@H](CC(C)(C)C)[C@](C#N)(c2ccc(Cl)cc2F)[C@H]1c1cccc(Cl)c1F [RG7388]	–	–	–	–	–	–	–	–	no response; also recorded: no increase in MDM2 protein	increase in MDM2 protein levels	does not interrupt binding; also recorded: unable to dissociate	–
C[C@H](CC(=O)N1CCC(O)(Cn2cnc3cc(NC(=O)CCN4CCN(C)CC4)ccc3c2=O)CC1)c1ccccc1 [XL-188, (R)—N-(3-((4-hydroxy-1-(3-phenylbutanoyl)piperidin-4-yl)methyl)-4-oxo-3,4-dihydroquinazolin-7-yl)-3-(4-methylpiperazin-1-yl) propanamide]	reduced viability predominantly in TP53 wild-type Ewing sarcoma cell lines	–	–	completely reversed the cytotoxic effect	–	–	–	–	–	–	–	especially robust effect
